Experimental findings from patent publication US20230227435A1, “SMALL MOLECULE MODULATORS OF IL-17” (LEO PHARMA A/S, priority 2020, published 2023) are described below.

Molecules are shown by their SMILES.

This assay deals with T1, human IL-17AA (Homo sapiens, UniProt Q16552).
T1 construct: host or cells: HEK (human embryonic kidney) cells
T1 sequence (Q16552 24-155) 1: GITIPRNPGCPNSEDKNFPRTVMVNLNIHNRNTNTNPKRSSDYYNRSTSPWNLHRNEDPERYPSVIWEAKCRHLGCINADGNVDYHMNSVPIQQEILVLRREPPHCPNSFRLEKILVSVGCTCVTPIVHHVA
T1 sequence (Q16552 24-155) 2: T1 sequence (Q16552 24-155) 1
As to the kind of experiment: IL-8 release assay in human epithelial keratinocytes adult (HEKa). It is filed as cell-based. Conditions: HEKa cells; 3 ng/mL HEK-human IL-17AA + 10 ng/mL human TNFalpha; 68-72 hours; IL-8 by HTRF; read-out: Rel EC50 IL-8 release assay. Here is the method: Example 8: IL-8 Release Assay in Human Epithelial Keratinocytes Adult (HEKa)
Keratinocytes were seeded at 3500 cells/well in 384-well ViewPlates (Perkin Elmer) in Epilife medium (Thermo Fisher) containing human keratinocyte growth supplement (HKGS) without hydrocortisone and incubated in a humid incubator at 37° C., 5% CO2, overnight. The following day growth medium was removed and 25 μl fresh Epilife medium was added. 75 nL test compound in100% DMSO was added into each well reserved for test compounds, by the use of acoustic pipetting. The remaining wells received an equal volume of DMSO only, as vehicle control, or terfenadine in DMSO, as a positive control for any cytotoxic compounds. Subsequently, another 25 μL Epilife medium was added to each well. Finally, wells containing test compounds and wells prepared to yield maximum stimulation received 25 μL of 9 ng/mL recombinant, human embryonic kidney cell (HEK)-derived human IL-17AA+30 ng/mL human TNF-alpha, in Epilife medium. Wells prepared to define 100% inhibition of IL-17 effects received 25 μL of 30 ng/mL human TNF-alpha alone, in Epilife medium. Final concentrations were 3 ng/mL HEK-human IL-17AA+10 ng/mL human TNFalpha (maximum stimulation) and 10 ng/mL human TNFalpha alone (100% inhibition, Emax), respectively. Cells were incubated for 68-72 hours in the incubator. IL-8 released from the cells was measured by the use of a commercial homogenous time-resolved fluorescence (HTRF) assay (CisBio). 2 μL cell culture supernatant was transferred to a 384-well Proxiplate. 5 μL HTRF reagent was added and the plates were incubated sealed in the dark for 3-22 hours at room temperature. Time-resolved fluorescence was read at 665 vs 620 nm, with excitation at 320 nm, and IL-8 levels were calculated as percent of controls. Reduction of the amount of secreted IL-8 indicates decreased IL-17 signaling. Concentration response curves were fitted by the use of a four-parameter logistic equation. Relative IC50 and Emax were reported from curves showing acceptable fit (r^2>0.9). Cytotoxicity was measured in the cell-containing Viewplates following addition of 7 μL PrestoBlue (Thermo Fisher) and incubation for 2.5-3 hours at room temperature, by measuring fluorescence at 615 nm (excitation at 535 nm). Fluorescence was directly proportional to the amount of metabolic activity. Reduction of fluorescence signal indicated cytotoxicity.
Compounds of the present invention were tested in the IL-8 release assay in human epithelial keratinocytes.
For the molecule `Cc1n[nH]c(C)c1-c1ccc(NC(=O)C(c2nnc(-c3ccnn3C(C)C)[nH]2)C(C2CC2)C2CC2)cc1` (single isomer, unassigned) [Example 70, 3,3-dicyclopropyl-N-[4-(3,5-dimethyl-1H-pyrazol-4-yl)phenyl]-2-[5-(2-isopropylpyrazol-3-yl)-4H-1,2,4-triazol-3-yl]propanamide], the half-maximal effective concentration (EC50) was 27 nM.

On to `Cc1n[nH]c(C)c1-c1ccc(NC(=O)C(c2nnc(-c3ccnn3C(C)C)[nH]2)C(C2CC2)C2CC2)cc1` (single isomer, unassigned) [Example 71, 3,3-dicyclopropyl-N-[4-(3,5-dimethyl-1H-pyrazol-4-yl)phenyl]-2-[5-(2-isopropylpyrazol-3-yl)-4H-1,2,4-triazol-3-yl]propanamide], for which the concentration giving a half-maximal response (EC50) was more than 625 nM. Consider `Cc1n[nH]c(C)c1-c1ccc(NC(=O)C(c2nnc(-c3ccccc3)[nH]2)C(C2CC2)C2CC2)cc1` (stereo not drawn) [Example 1, 3,3-dicyclopropyl-N-[4-(3,5-dimethyl-1H-pyrazol-4-yl)phenyl]-2-(5-phenyl-4H-1,2,4-triazol-3-yl)propanamide], for which the EC50 was determined as 290 nM. Turning to `Cc1n[nH]c(C)c1-c1ccc(NC(=O)C(c2nc(-c3ccccc3)c[nH]2)C(C2CC2)C2CC2)cc1` (stereo not drawn) [Example 2, 3,3-dicyclopropyl-N-[4-(3,5-dimethyl-1H-pyrazol-4-yl)phenyl]-2-(4-phenyl-1H-imidazol-2-yl)propanamide], the EC50 stood at 310 nM. The result for `Cc1n[nH]c(C)c1-c1ccc(NC(=O)C(c2nc(-c3ccccc3)c(Cl)[nH]2)C(C2CC2)C2CC2)cc1` (stereo not drawn) [Example 3, 2-(5-chloro-4-phenyl-1H-imidazol-2-yl)-3,3-dicyclopropyl-N-[4-(3,5-dimethyl-1H-pyrazol-4-yl)phenyl]propanamide] reads 3100 nM; that for `Cc1n[nH]c(C)c1-c1ccc(NC(=O)C(c2nnc[nH]2)C(C2CC2)C2CC2)cc1` (stereo not drawn) [Example 4, 3,3-dicyclopropyl-N-[4-(3,5-dimethyl-1H-pyrazol-4-yl)phenyl]-2-(4H-1,2,4-triazol-3-yl)propanamide], 2900 nM; that for `Cc1n[nH]c(C)c1-c1ccc(NC(=O)C(c2nnc(-c3ccccc3F)[nH]2)C(C2CC2)C2CC2)cc1` (stereo not drawn) [Example 5, 3,3-dicyclopropyl-N-[4-(3,5-dimethyl-1H-pyrazol-4-yl)phenyl]-2-[5-(2-fluorophenyl)-4H-1,2,4-triazol-3-yl]propanamide], 390 nM. For the molecule `Cc1n[nH]c(C)c1-c1ccc(NC(=O)C(c2ncc[nH]2)C(C2CC2)C2CC2)cc1` (stereo not drawn) [Example 6, 3,3-dicyclopropyl-N-[4-(3,5-dimethyl-1H-pyrazol-4-yl)phenyl]-2-(1H-imidazol-2-yl)propanamide], the EC50 worked out at 1300 nM. Next, `Cc1n[nH]c(C)c1-c1ccc(NC(=O)C(c2nc(-c3ccccc3)c(C)[nH]2)C(C2CC2)C2CC2)cc1` (stereo not drawn) [Example 7, 3,3-dicyclopropyl-N-[4-(3,5-dimethyl-1H-pyrazol-4-yl)phenyl]-2-(5-methyl-4-phenyl-1H-imidazol-2-yl)propanamide]: 800 nM; `COc1ccccc1-c1cnc(C(C(=O)Nc2ccc(-c3c(C)n[nH]c3C)cc2)C(C2CC2)C2CC2)[nH]1` (stereo not drawn) [Example 9, 3,3-dicyclopropyl-N-[4-(3,5-dimethyl-1H-pyrazol-4-yl)phenyl]-2-[5-(2-methoxyphenyl)-1H-imidazol-2-yl]propanamide]: 450 nM. The result for `Cc1n[nH]c(C)c1-c1ccc(NC(=O)C(c2nnc(C3CCCC3)[nH]2)C(C2CC2)C2CC2)cc1` (stereo not drawn) [Example 10, 2-(5-cyclopentyl-4H-1,2,4-triazol-3-yl)-3,3-dicyclopropyl-N-[4-(3,5-dimethyl-1H-pyrazol-4-yl)phenyl]propanamide] reads 1900 nM; that for `Cc1n[nH]c(C)c1-c1ccc(NC(=O)C(c2nnc(-c3ccnn3C(C)C)[nH]2)C(C2CC2)C2CC2)nc1F` (stereo not drawn) [Example 11, 3,3-dicyclopropyl-N-[5-(3,5-dimethyl-1H-pyrazol-4-yl)-6-fluoro-2-pyridyl]-2-[5-(2-isopropylpyrazol-3-yl)-4H-1,2,4-triazol-3-yl]propanamide], 93 nM. With `Cc1n[nH]c(C)c1-c1ccc(NC(=O)C(c2nnc(-c3ccnn3C(C)C)[nH]2)C(C2CC2)C2CC2)c(F)c1` (stereo not drawn) [Example 12, 3,3-dicyclopropyl-N-[4-(3,5-dimethyl-1H-pyrazol-4-yl)-2-fluoro-phenyl]-2-[5-(2-isopropylpyrazol-3-yl)-4H-1,2,4-triazol-3-yl]propanamide], the concentration for a half-maximal effect (EC50) amounted to 140 nM. On to `Cc1nonc1-c1nnc(C(C(=O)Nc2ccc(-c3c(C)n[nH]c3C)cc2)C(C2CC2)C2CC2)[nH]1` (stereo not drawn) [Example 13, 3,3-dicyclopropyl-N-[4-(3,5-dimethyl-1H-pyrazol-4-yl)phenyl]-2-[5-(4-methyl-1,2,5-oxadiazol-3-yl)-4H-1,2,4-triazol-3-yl]propanamide], for which the EC50 is 170 nM.

On to `Cc1n[nH]c(C)c1-c1ccc(NC(=O)C(c2nnc(-c3c(F)cnn3C)[nH]2)C(C2CC2)C2CC2)cc1` (stereo not drawn) [Example 14, 3,3-dicyclopropyl-N-[4-(3,5-dimethyl-1H-pyrazol-4-yl)phenyl]-2-[5-(4-fluoro-2-methyl-pyrazol-3-yl)-4H-1,2,4-triazol-3-yl]propanamide], for which the EC50 was 300 nM. The result for `Cc1n[nH]c(C)c1-c1ccc(NC(=O)C(c2nnc(Cc3cccnc3)[nH]2)C(C2CC2)C2CC2)cc1` (stereo not drawn) [Example 15, 3,3-dicyclopropyl-N-[4-(3,5-dimethyl-1H-pyrazol-4-yl)phenyl]-2-[5-(3-pyridylmethyl)-4H-1,2,4-triazol-3-yl]propanamide] reads 350 nM.

Take `Cc1n[nH]c(C)c1-c1ccc(NC(=O)C(c2nnc(Cc3cc[nH]n3)[nH]2)C(C2CC2)C2CC2)cc1` (stereo not drawn) [Example 16, 3,3-dicyclopropyl-N-[4-(3,5-dimethyl-1H-pyrazol-4-yl)phenyl]-2-[5-(1H-pyrazol-3-ylmethyl)-4H-1,2,4-triazol-3-yl]propanamide]: the EC50 amounted to 1500 nM. Next, `Cc1n[nH]c(C)c1-c1ccc(NC(=O)C(c2nnc(Cc3ccccc3)[nH]2)C(C2CC2)C2CC2)cc1` (stereo not drawn) [Example 17, 2-(5-benzyl-4H-1,2,4-triazol-3-yl)-3,3-dicyclopropyl-N-[4-(3,5-dimethyl-1H-pyrazol-4-yl)phenyl]propanamide]: 240 nM; `Cc1n[nH]c(C)c1-c1ccc(NC(=O)C(c2nnc(-c3ccccc3Cl)[nH]2)C(C2CC2)C2CC2)cc1` (stereo not drawn) [Example 18, 2-[5-(2-chlorophenyl)-4H-1,2,4-triazol-3-yl]-3,3-dicyclopropyl-N-[4-(3,5-dimethyl-1H-pyrazol-4-yl)phenyl]propanamide]: 310 nM; `COc1ccccc1-c1nnc(C(C(=O)Nc2ccc(-c3c(C)n[nH]c3C)cc2)C(C2CC2)C2CC2)[nH]1` (stereo not drawn) [Example 19, 3,3-dicyclopropyl-N-[4-(3,5-dimethyl-1H-pyrazol-4-yl)phenyl]-2-[5-(2-methoxyphenyl)-4H-1,2,4-triazol-3-yl]propanamide]: 620 nM.

As for `Cc1n[nH]c(C)c1-c1ccc(NC(=O)C(c2nnc(-c3cnn(C)c3)[nH]2)C(C2CC2)C2CC2)cc1` (stereo not drawn) [Example 20, 3,3-dicyclopropyl-N-[4-(3,5-dimethyl-1H-pyrazol-4-yl)phenyl]-2-[5-(1-methylpyrazol-4-yl)-4H-1,2,4-triazol-3-yl]propanamide], the concentration for a half-maximal effect (EC50) was 990 nM. The result for `Cc1n[nH]c(C)c1-c1ccc(NC(=O)C(c2nnc(-c3ccnn3C)[nH]2)C(C2CC2)C2CC2)cc1` (stereo not drawn) [Example 21, 3,3-dicyclopropyl-N-[4-(3,5-dimethyl-1H-pyrazol-4-yl)phenyl]-2-[5-(2-methylpyrazol-3-yl)-4H-1,2,4-triazol-3-yl]propanamide] reads 200 nM.

For the molecule `Cc1n[nH]c(C)c1-c1ccc(NC(=O)C(c2nnc(-c3ccn(C)c(=O)c3)[nH]2)C(C2CC2)C2CC2)cc1` (stereo not drawn) [Example 22, 3,3-dicyclopropyl-N-[4-(3,5-dimethyl-1H-pyrazol-4-yl)phenyl]-2-[5-(1-methyl-2-oxo-4-pyridyl)-4H-1,2,4-triazol-3-yl]propanamide], the EC50 was found to be 430 nM. The result for `CCn1nccc1-c1nnc(C(C(=O)Nc2ccc(-c3c(C)n[nH]c3C)cc2)C(C2CC2)C2CC2)[nH]1` (stereo not drawn) [Example 23, 3,3-dicyclopropyl-N-[4-(3,5-dimethyl-1H-pyrazol-4-yl)phenyl]-2-[5-(2-ethylpyrazol-3-yl)-4H-1,2,4-triazol-3-yl]propanamide] reads 59 nM.
